Reference: patent publication US11357971B2, “Ion pump with hyperbranched polymers” (OBOE IPR AB, priority 2016, dated 2022)

How the values were obtained:
[1] = system: Arabidopsis thaliana seedlings (root apical meristem); test: Root growth rate of A. thaliana seedlings during OEIP delivery; format: in vivo; settings: for effect on root growth rate: OEIP delivery, 60 min, compared with non-targeted seedlings
Source text: The dPG-based OEIPs were used for in vivo experiments on a highly accessible model plant system suitable for live-cell imaging in the intact organism. Specifically, the apical root meristem and early elongation zone of four-day-old Arabidoposis thaliana seedlings positioned on agar gel were targeted for delivery of IAA via the OEIP. Root tips were monitored using a horizontally oriented Nikon AZ100 spectral macro-confocal laser-scanning microscope system schematically illustrated in FIG. 3a. In this arrangement, seedlings were positioned and imaged vertically.
As a negative control, benzoic acid^15 was delivered by the OEIP device, operated in the same configuration.
(§1) To this end, seeds of both genotypes and wild-type Col-0 were surface sterilized with 70% ethanol for 1 min, incubated in pool cleaner (Biltema, Sweden; one tablet per 2000 ml H2O) for 12 min, and washed four times with sterile, distilled water (dH2O). After 3 days at 4° C. in the dark, seeds were plated and grown on ½ Murashige and Skoog (MS) (Duchefa Biochemie, Haarlem, The Netherlands), 0.5 g/L 2-(N-morpholino)ethanesulfonic acid (MES, Sigma-Aldrich), 1% sucrose, 0.7% plant agar (Duchefa) growth medium plates (120×120 mm square petri-dishes; Gosselin) at pH 5.6 in vertical orientation at 23° C. with 16 h of light per day. 12 h prior to the start of the experiments, 4 days post-germination (dpg) seedlings were positioned onto fresh plates of identical MS media composition additionally supplemented with 0.01 M KCl.
Immediately prior to the experiments, the OEIPs were operated in a target solution of 10^−5 M KCl(aq), and the OEIP device tip was kept from drying excessively during sample loading and OEIP positioning. A Keithley 2612b SourceMeter (Keithley Instruments Inc, Cleveland, Ohio, USA) and custom LabVIEW (National Instruments Corporation, Austin, Tex., USA) software was use to source current and record voltage. The OEIP device was turned on immediately prior to the first imaging sequence and operated at a constant electrical current of 1 μA. For these experiments, the OEIP delivery tip was submerged in the MS media in close proximity (100-200 μm) to the root epidermal tissue (FIG. 3b,c) and was held at a fixed position in the growth MS media for the duration of each trial.

[2] = system: DII-Venus auxin-response reporter; test: DII-Venus fluorescent auxin-response reporter seedlings, OEIP delivery; format: in vivo, Arabidopsis thaliana; settings: for effect on DII-Venus fluorescence intensity: OEIP delivery to root tip, signal falls in presence of auxin
Source text: The DII-Venus reporter is characterized by absence or reduction in fluorescent signal intensity in the presence of auxin or increasing auxin levels, respectively. Conversely, in DR5, the presence or gain of fluorescent signal intensity indicates presence or increase of auxin concentrations, respectively. The relative auxin abundance is visualized faster by DII-Venus than by DR5^15, because the DII-Venus signal relies on a protein degradation mechanism rather than the slower transcriptional and translational production mechanisms of DR5.
Using DII-Venus seedlings, the fluorescent signal intensity was monitored and onset of strong fluorescence reduction was observed between 30 to 60 min (FIG. 5a,b).
as §1, with “12 h prior to the start of the experiments, 4 days post-germination (dpg) seedlings were positioned onto fresh plates of identical MS media composition additionally supplemented with 0.01 M KCl.” left out
A custom reoriented macro confocal laser-scanning microscope with a vertical stage was used to acquire images (Bergman-Labora, Sweden). The macro confocal consisted of a horizontally placed AZ100 macroscope (Nikon, Japan) adapted with a specially built XYZ motorized stage (Prior Scientific fitted by Bergman-Labora) and supplied with diascopic white light and episcopic fluorescence light (Nikon). […] Excitation was at 488 nm and emission detected with a 525/50 filter. DII Venus fluorescence intensities from a single layer were normalized to initial intensity, averaged and compared (Standard deviation of the mean). […]

[3] = system: DR5rev:GFP auxin-response reporter; test: DR5rev:GFP fluorescent auxin-response reporter seedlings, OEIP delivery to elongation zone; format: in vivo, Arabidopsis thaliana; settings: root elongation zone
Source text: A custom reoriented macro confocal laser-scanning microscope with a vertical stage was used to acquire images (Bergman-Labora, Sweden). The macro confocal consisted of a horizontally placed AZ100 macroscope (Nikon, Japan) adapted with a specially built XYZ motorized stage (Prior Scientific fitted by Bergman-Labora) and supplied with diascopic white light and episcopic fluorescence light (Nikon). A climate enclosure with passive humidification was designed to surround the stage area to keep plants in a humid, dark environment. The AZ100 macroscope was connected to a C2+ confocal laser scanning system (Nikon) equipped with lasers for 405 nm, 457/488/514 nm and 561 nm excitation and a transmitted light detector. […] Excitation was at 488 nm and emission detected with a 525/50 filter. DII Venus fluorescence intensities from a single layer were normalized to initial intensity, averaged and compared (Standard deviation of the mean). […]

[4] = reported in literature (ref. 13); cited from earlier work

Row | Compound | effect on root growth rate [1] | effect on DII-Venus fluorescence intensity [2] | effect on DR5 reporter fluorescent intensity [3] | root growth rate after 60 min of delivery ([1]; OEIP delivery at 1 μA, average of 5 trials, after 60 min) | root growth rate before the decrease ([1]; OEIP delivery at 1 μA, average of 5 trials, initial rate) | onset of strong fluorescence reduction ([2]; DII-Venus seedlings, OEIP delivery) | onset of fluorescence in plant tissues [3] | activity in previous bioassays [4]
1 | O=C(O)c1ccccc1 [benzoic acid] | maintained their growth rates | preserved their fluorescence | did not display alterations in fluorescent intensity | – | – | – | – | –
2 | O=C(O)Cc1c[nH]c2ccccc12 [IAA, indole-3-acetic acid] | rapid decrease in growth rate | strong and significant decrease in fluorescence | signal continued to increase between 2 and 3 hours | 2.4±0.7 μm min^−1 | 4.7±1.0 μm min^−1 | 30 to 60 min | 1 h | –
3 | O=C(O)CC1C(=O)Nc2ccccc21 (centres unmarked) [oxIAA, 2-oxindole-3-acetic acid] | – | – | – | – | – | – | – | inactive
